Experiments:
Format in all cases: functional
[1] = test system: Podosphaera fuliginea; test: Fungicidal activity against Podosphaera fuliginea inoculated on cucumber plants pre-treated with compound 24 hr before fungal inoculation assessed as inhibition of cucumber powdery mildew disease at 500 ppm measured after 10 days under greenhouse conditions relative to untreated control
[2] = test system: Blumeria graminis f. sp. tritici; test: Fungicidal activity against Blumeria graminis f. sp. tritici inoculated on wheat seedlings pre-treated with compound 24 hr before fungal inoculation assessed as inhibition of wheat powdery mildew disease at 500 ppm measured after 10 days under greenhouse conditions relative to untreated control
[3] = test system: Podosphaera fuliginea; test: Fungicidal activity against Podosphaera fuliginea inoculated on cucumber plants pre-treated with compound 24 hr before fungal inoculation assessed as inhibition of cucumber powdery mildew disease at 31.3 ppm measured after 10 days under greenhouse conditions relative to untreated control
[4] = test system: Blumeria graminis f. sp. tritici; test: Fungicidal activity against Blumeria graminis f. sp. tritici inoculated on wheat seedlings pre-treated with compound 24 hr before fungal inoculation assessed as inhibition of wheat powdery mildew disease at 7.8 ppm measured after 10 days under greenhouse conditions relative to untreated control
[5] = test system: Pyricularia oryzae; test: Inhibition of oxygen consumption in Magnaporthe oryzae submitochondrial particles using NADH substrate
[6] = test system: Puccinia coronata; test: Fungicidal activity against Puccinia coronata inoculated in oat leaves treated with compound 24 hr after fungal inoculation assessed as inhibition of oat crown rust disease at 7.8 ppm measured after 9 days under greenhouse conditions relative to untreated control
[7] = test system: Podosphaera fuliginea; test: Fungicidal activity against Podosphaera fuliginea inoculated on cucumber plants treated with compound 24 hr after fungal inoculation assessed as inhibition of cucumber powdery mildew disease at 31.3 ppm measured after 10 days under greenhouse conditions relative to untreated control
[8] = test system: Botrytis cinerea; test: Fungicidal activity against Botryotinia fuckeliana inoculated on cucumber leaves treated with compound 24 hr after fungal inoculation assessed as inhibition of cucumber gray mold disease at 31.3 ppm measured after 3 days under greenhouse conditions relative to untreated control
[9] = test system: Blumeria graminis f. sp. tritici; test: Fungicidal activity against Blumeria graminis f. sp. tritici inoculated on wheat seedlings treated with compound 24 hr after fungal inoculation assessed as inhibition of wheat powdery mildew disease at 7.8 ppm measured after 10 days under greenhouse conditions relative to untreated control
[10] = test system: Podosphaera fuliginea; test: Fungicidal activity against Podosphaera fuliginea inoculated on cucumber plants pre-treated with compound 24 hr before fungal inoculation assessed as inhibition of cucumber powdery mildew disease at 7.8 ppm measured after 10 days under greenhouse conditions relative to untreated control
[11] = test system: Botrytis cinerea; test: Fungicidal activity against Botryotinia fuckeliana inoculated on cucumber leaves treated with compound 24 hr after fungal inoculation assessed as inhibition of cucumber gray mold disease at 7.8 ppm measured after 3 days under greenhouse conditions relative to untreated control
[12] = test system: Puccinia coronata; test: Fungicidal activity against Puccinia coronata inoculated in oat leaves treated with compound 24 hr after fungal inoculation assessed as inhibition of oat crown rust disease at 31.3 ppm measured after 9 days under greenhouse conditions relative to untreated control
[13] = test system: Blumeria graminis f. sp. tritici; test: Fungicidal activity against Blumeria graminis f. sp. tritici inoculated on wheat seedlings pre-treated with compound 24 hr before fungal inoculation assessed as inhibition of wheat powdery mildew disease at 31.3 ppm measured after 10 days under greenhouse conditions relative to untreated control
[14] = test system: Puccinia coronata; test: Fungicidal activity against Puccinia coronata inoculated in oat leaves pre-treated with compound 24 hr before fungal inoculation assessed as inhibition of oat crown rust disease at 31.3 ppm measured after 9 days under greenhouse conditions relative to untreated control
[15] = test system: Blumeria graminis f. sp. tritici; test: Fungicidal activity against Blumeria graminis f. sp. tritici inoculated on wheat seedlings treated with compound 24 hr after fungal inoculation assessed as inhibition of wheat powdery mildew disease at 31.3 ppm measured after 10 days under greenhouse conditions relative to untreated control
[16] = test system: Botrytis cinerea; test: Fungicidal activity against Botryotinia fuckeliana inoculated on cucumber leaves pre-treated with compound 24 hr before fungal inoculation assessed as inhibition of cucumber gray mold disease at 31.3 ppm measured after 3 days under greenhouse conditions relative to untreated control
[17] = test system: Botrytis cinerea; test: Fungicidal activity against Botryotinia fuckeliana inoculated on cucumber leaves pre-treated with compound 24 hr before fungal inoculation assessed as inhibition of cucumber gray mold disease at 7.8 ppm measured after 3 days under greenhouse conditions relative to untreated control
[18] = test system: Podosphaera fuliginea; test: Fungicidal activity against Podosphaera fuliginea inoculated on cucumber plants treated with compound 24 hr after fungal inoculation assessed as inhibition of cucumber powdery mildew disease at 7.8 ppm measured after 10 days under greenhouse conditions relative to untreated control
[19] = test system: Puccinia coronata; test: Fungicidal activity against Puccinia coronata inoculated in oat leaves pre-treated with compound 24 hr before fungal inoculation assessed as inhibition of oat crown rust disease at 7.8 ppm measured after 9 days under greenhouse conditions relative to untreated control

Compound | inhibition at 500 ppm [1] [%] | inhibition at 500 ppm [2] [%] | inhibition at 31.3 ppm [3] [%] | inhibition at 31.3 ppm [13] [%] | also measured
CO/N=C(/C1=NOC(C)(C)C1)c1ccccc1COc1cc(C)ccc1C | < 90 | < 90 | – | – | –
CO/N=C(\c1ccccc1COc1cc(C)ccc1C)C1CC(C)=NO1 (stereo not given) | – | < 90 | 90 | – | –
CO/N=C(/c1ccon1)c1ccccc1COc1cc(C)ccc1C | – | – | 100 | 97 | inhibition at 7.8 ppm [4]: 97%; IC50 [5]: 103 nM; inhibition at 7.8 ppm [6]: 30%; inhibition at 31.3 ppm [7]: 100%; inhibition at 31.3 ppm [8]: 30%; inhibition at 7.8 ppm [9]: 90%; inhibition at 7.8 ppm [10]: 100%; inhibition at 7.8 ppm [11]: 30%; inhibition at 31.3 ppm [12]: 70%; inhibition at 31.3 ppm [14]: 97%; inhibition at 31.3 ppm [15]: 97%; inhibition at 31.3 ppm [16]: 40%; inhibition at 7.8 ppm [17]: 20%; inhibition at 7.8 ppm [18]: 100%; inhibition at 7.8 ppm [19]: 90%
CO/N=C(/c1cc(C)on1)c1ccccc1COc1cc(C)ccc1C | – | < 90 | 90 | – | –
CO/N=C(/c1cc(OC)on1)c1ccccc1COc1cc(C)ccc1C | – | < 90 | 90 | – | –
CO/N=C(\c1ccccc1COc1cc(C)ccc1C)c1c(C)noc1C | 90 | < 90 | – | – | –
CO/N=C(/c1ccno1)c1ccccc1COc1cc(C)ccc1C | – | – | 90 | 90 | –
CO/N=C(/c1cc(C)no1)c1ccccc1COc1cc(C)ccc1C | – | – | – | 90 | inhibition at 7.8 ppm [10]: 90%
CCc1cc(/C(=N/OC)c2ccccc2COc2cc(C)ccc2C)on1 | 90 | < 90 | – | – | –
CO/N=C(\Cc1cc(C)no1)c1ccccc1COc1cc(C)ccc1C | < 90 | < 90 | – | – | –
